Experiment: proof-of-principle fluorescence tracer study: delivery to the spinal cord with dumbbell-shaped dual chamber stentgraft and histamine portal
Assay type: in vivo
Protocol: As a proof-of-principle study, we evaluated this strategy by using a dumbbell-shaped dual chamber stentgraft to deliver a fluorescent tracer (fluorescein dye) to the spinal cord. In this fluorescence tracer study, delivery of the tracer to the spinal cord using the dumbbell stentgraft was performed using a histamine portal (see FIGS. 3A-3C and FIG. 5). The dual chamber stent was used to deliver a “pulse” of histamine specifically to the spinal cord region of interest to create a “portal” in the BBB (i.e., a local increase in BBB permeability).
Dual chamber, retrievable stent graft: Stents were laser cut from the shape memory alloy, nitinol, and thermally shapeset into a dumbbell shape. The scaffold was affixed to a permanently attached delivery/retrieval wire, encapsulated in the polymer polytetrafluoroethelene (Zeus, Inc) with a perfusion cannula to the outer chamber and compressed into a sheath for endovascular delivery.

delivery of fluorescein to the spinal cord (local administration in combination with portal agent (histamine) as compared to intravascular tracer injection alone, FIG. 5): much higher
Compound: O=C1OC2(c3ccc(O)cc3Oc3cc(O)ccc32)c2ccccc21 [fluorescein]
staining of spinal cord cross sections viewed under UV Woods lamp (histamine pulse followed by tracer delivered to outer chamber of dual chamber stentgraft, FIG. 3C): successful staining of the entirety of the spinal cord

From patent US20250262152A1, “DEVICES, SYSTEMS, KITS, AND METHODS FOR DRUG DELIVERY TO THE SPINAL CORD” (Ohio State Innovation Foundation, priority 2022, published 2025)
